From publication PMC7956155, “Design and Evaluation of Peptide Dual-Agonists of GLP-1 and NPY2 Receptors for Glucoregulation and Weight Loss with Mitigated Nausea and Emesis” (Journal of Medicinal Chemistry, 2021)
Square brackets hold non-standard residues; d marks the D form. Ends that are not written are not given here.

What was measured:
human GLP-1R [1] = biological target: T1, human GLP-1R (Homo sapiens, UniProt P43220); experiment: cAMP FRET reporter (H188) agonism assay at human GLP-1R in HEK293 cells; assay type: cell-based
T1 sequence (P43220 24-463): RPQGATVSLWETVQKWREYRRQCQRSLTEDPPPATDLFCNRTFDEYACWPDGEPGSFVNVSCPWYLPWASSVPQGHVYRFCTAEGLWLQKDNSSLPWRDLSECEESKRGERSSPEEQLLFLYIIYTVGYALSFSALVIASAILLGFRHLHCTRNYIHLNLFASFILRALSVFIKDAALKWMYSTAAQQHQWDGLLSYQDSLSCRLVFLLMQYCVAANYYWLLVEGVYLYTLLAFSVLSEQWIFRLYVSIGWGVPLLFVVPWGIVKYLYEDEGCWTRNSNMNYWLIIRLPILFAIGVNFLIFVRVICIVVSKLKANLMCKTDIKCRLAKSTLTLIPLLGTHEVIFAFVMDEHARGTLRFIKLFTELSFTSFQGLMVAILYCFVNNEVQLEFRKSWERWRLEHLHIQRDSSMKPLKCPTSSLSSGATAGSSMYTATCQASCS
Description: HEK293 cells stably expressing the human GLP-1R and virally transduced with H188 for FRET assays were obtained from Novo Nordisk A/S (Bagsvaerd, Denmark).[67] […] Post-transfection, cells were incubated for 48 h in fresh culture media. For real-time kinetic assays of FRET, cells were harvested and resuspended in 21 mL of SES buffer and plated at 196 μL per well. […] FRET assays and data analysis were performed using a FlexStation 3 microplate reader as described.
Cells were then transduced for 16 h with H188 virus at a density of 60 000 cells/well under conditions in which the multiplicity of infection was equivalent to 25 viral particles per cell. The culture media was removed and replaced by 200 μL/well of a standard extracellular saline (SES) solution supplemented with 11 mM glucose and 0.1% BSA. […] Real-time kinetic assays of FRET were performed using a FlexStation 3 microplate reader equipped with excitation and emission light monochromators (Molecular Devices, Sunnyvale, CA). […] The emission intensities were the averages of 15 excitation flashes for each time point per well. […] Prism 8.1 was also used for nonlinear regression analysis to quantify dose–response relationships.

rat GLP-1R = biological target: T2, rat GLP-1R (Rattus norvegicus, UniProt P32301); assay type: cell-based
T2 sequence (P32301 22-463): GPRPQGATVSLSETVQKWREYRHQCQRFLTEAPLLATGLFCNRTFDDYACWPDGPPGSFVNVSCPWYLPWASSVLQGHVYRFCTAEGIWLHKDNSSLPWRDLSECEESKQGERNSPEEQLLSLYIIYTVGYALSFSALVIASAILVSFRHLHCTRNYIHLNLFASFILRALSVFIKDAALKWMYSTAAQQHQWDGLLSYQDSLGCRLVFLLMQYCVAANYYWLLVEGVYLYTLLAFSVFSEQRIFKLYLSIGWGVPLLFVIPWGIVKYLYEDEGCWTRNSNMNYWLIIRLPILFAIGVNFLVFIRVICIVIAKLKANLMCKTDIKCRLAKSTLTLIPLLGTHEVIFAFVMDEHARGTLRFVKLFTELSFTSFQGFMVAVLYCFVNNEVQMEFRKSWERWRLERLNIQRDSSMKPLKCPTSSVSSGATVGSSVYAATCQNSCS

human GLP-1R [2] = biological target: T1, human GLP-1R; experiment: Taglite fluorescent competitive binding assay at GLP-1R against GLP-1red; conditions: CHO-K1 cells, tracer GLP-1red 4 nM, duplicate independent runs
rat GlucR = rat GlucR (Rattus norvegicus, UniProt P30082); experiment: cAMP FRET reporter (H188) agonism assay at GlucR in HEK293 cells; assay type: cell-based; conditions: HEK293 cells stably expressing GlucR, H188 FRET biosensor; duplicate independent experiments; read-out: GlucR agonist action (EC50), increase of cytosolic cAMP
Sequence of rat GlucR (P30082 27-485): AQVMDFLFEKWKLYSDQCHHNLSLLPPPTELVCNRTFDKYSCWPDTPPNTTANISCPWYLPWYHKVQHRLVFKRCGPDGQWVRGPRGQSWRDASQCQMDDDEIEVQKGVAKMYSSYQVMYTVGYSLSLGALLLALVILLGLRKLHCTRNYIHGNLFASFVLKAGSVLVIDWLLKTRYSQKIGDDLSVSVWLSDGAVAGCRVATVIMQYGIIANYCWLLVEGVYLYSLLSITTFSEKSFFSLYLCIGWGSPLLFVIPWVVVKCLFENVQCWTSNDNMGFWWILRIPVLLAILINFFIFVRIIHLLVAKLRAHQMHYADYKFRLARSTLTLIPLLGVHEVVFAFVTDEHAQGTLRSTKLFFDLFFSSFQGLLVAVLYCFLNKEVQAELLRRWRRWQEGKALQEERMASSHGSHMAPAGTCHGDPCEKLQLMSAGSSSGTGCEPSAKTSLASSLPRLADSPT
Description: Plasmid encoding human Y2-R (I.D. NPYR20TN00) in pcDNA3.1 and human Y1-R (NPYR10TN00) were obtained from the cDNA Resource Center (Bloomsburg, PA). HEK293 cells stably expressing the rat GlucR were obtained from C. […] Adenovirus for transduction of HEK293 cells was generated by a commercial vendor (Vira-Quest, North Liberty, IA) using the shuttle vector pVQAd CMV K-NpA and the H188 plasmid provided by Prof. Kees Jalink.[74]
These assays were conducted as fully described by us previously.[70],[71] Briefly, HEK293 cells transiently or stably expressing recombinant GPCRs were plated at 80% confluency on 96-well clear-bottom assay plates (Costar 3904, Corning, NY). […] Real-time kinetic assays of FRET were performed using a FlexStation 3 microplate reader equipped with excitation and emission light monochromators (Molecular Devices, Sunnyvale, CA). Excitation light was delivered at 435/9 nm (455 nm cutoff), and emitted light was detected at 485 ± 15 nm (cyan fluorescent protein) or 535 ± 15 nm (yellow fluorescent protein).[68],[75] […] The 485/535 emission ratio was calculated for each well, and the mean ± SD values for 12 wells were averaged. […] Prism 8.1 was also used for nonlinear regression analysis to quantify dose–response relationships.

[3] = Pooled rat liver microsomal stability assay; assay type: in vitro ADME; conditions: pooled male Sprague–Dawley rat liver microsomes 1 mg/mL, 30 μM peptide, 1 mM NADPH, pH 7.4, 37 °C, over 120 min, HPLC UV 206 nm, n = 3; standard error in brackets
Description: Pooled liver microsomes from a male Sprague–Dawley rat were purchased from Sigma-Aldrich. Microsomal incubations were performed in triplicate as independent data sets in 3 mM MgCl2, 25 mM KH2PO4 buffer at pH 7.4. Assays were performed at 500 μL total volume with 30 μM peptide, 1 mM NADPH, and 1 mg/mL pooled liver microsomes. Kanamycin at 200 μM was used as an internal standard. Pooled rat liver microsome assay showing data collected by HPLC. […] Assays were conducted at 37 °C with gentle rocking. […] Data were fit utilizing eqs 3–6.

human Y2-R = biological target: T3, human Y2-R (Homo sapiens, UniProt P49146); experiment: cAMP FRET reporter (H188) assay at Y2-R: counteraction of adenosine-stimulated cAMP in HEK293 cells; assay type: cell-based; conditions: HEK cells with H188 biosensor, recombinant human Y2-R and endogenous A2b receptors; 2 μM adenosine; 95% CI in brackets, at least triplicate; read-out: Y2-R agonist action (IC50), decrease of adenosine-raised cAMP
T3 sequence (P49146 1-381): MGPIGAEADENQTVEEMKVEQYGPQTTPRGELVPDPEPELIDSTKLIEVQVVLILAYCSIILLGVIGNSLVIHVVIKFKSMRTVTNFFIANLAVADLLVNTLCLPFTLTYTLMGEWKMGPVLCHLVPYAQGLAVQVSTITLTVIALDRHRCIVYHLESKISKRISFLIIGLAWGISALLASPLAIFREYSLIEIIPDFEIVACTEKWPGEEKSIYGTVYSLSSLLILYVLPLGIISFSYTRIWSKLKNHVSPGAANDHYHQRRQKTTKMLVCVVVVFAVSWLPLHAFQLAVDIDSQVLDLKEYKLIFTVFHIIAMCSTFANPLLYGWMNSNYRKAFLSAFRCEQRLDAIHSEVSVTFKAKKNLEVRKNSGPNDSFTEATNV

human Y1-R = biological target: T4, human Y1-R (Homo sapiens, UniProt P25929); experiment: cAMP FRET reporter (H188) assay at Y1-R: counteraction of adenosine-stimulated cAMP in HEK293 cells; assay type: cell-based; conditions: HEK cells with H188 biosensor, recombinant human Y1-R and endogenous A2b receptors; 2 μM adenosine; 95% CI in brackets, at least triplicate; read-out: Y1-R agonist action (IC50), decrease of adenosine-raised cAMP
T4 sequence (P25929 1-384): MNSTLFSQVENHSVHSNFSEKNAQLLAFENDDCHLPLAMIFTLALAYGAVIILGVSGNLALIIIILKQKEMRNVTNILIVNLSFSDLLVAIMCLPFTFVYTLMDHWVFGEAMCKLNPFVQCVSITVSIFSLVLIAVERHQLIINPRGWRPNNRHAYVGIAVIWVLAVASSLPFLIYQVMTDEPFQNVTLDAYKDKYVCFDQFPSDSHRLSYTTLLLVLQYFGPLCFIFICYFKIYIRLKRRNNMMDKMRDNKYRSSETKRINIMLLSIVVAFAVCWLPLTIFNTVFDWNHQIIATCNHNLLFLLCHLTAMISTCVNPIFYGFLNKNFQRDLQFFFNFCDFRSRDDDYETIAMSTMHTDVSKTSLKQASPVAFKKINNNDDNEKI

| Compound | increased GLP-1R potency over GEP44 (human GLP-1R [1]; comparison of EC50 values) | Kd (rat GLP-1R) | hill (competition binding at GLP-1R) (human GLP-1R [2]) | EC50 (rat GlucR) | CLlnt, intrinsic clearance in rat liver microsomes [3] | IC50 (human Y2-R) | EC50 (human GLP-1R [1]; HEK cells expressing human GLP-1R and cAMP biosensor H188, FRET, SES buffer pH 7.4, nonlinear regression, 95% CI in brackets, at least triplicate independent data sets, read-out: GLP-1R agonist action (EC50), increase of cytosolic cAMP) | IC50 (human Y1-R) | IC50 (human GLP-1R [2]; nine concentrations 1 pM to 1 μM, range in brackets, read-out: IC50, competition binding at GLP-1R using red fluorescent GLP-1) |
| --- | --- | --- | --- | --- | --- | --- | --- | --- | --- |
| H[dS]QGTFTSDLSKQMEEEAVRLFIEWLKNGGPSRHYLNLVTRQRY-NH2 [EP44] | ~30% | 0.12 nM | –1.56 |  |  |  |  |  |  |
| CC[C@H](C)[C@H](NC(=O)[C@H](Cc1ccccc1)NC(=O)[C@H](CC(C)C)NC(=O)[C@H](CCCNC(=N)N)NC(=O)[C@@H](NC(=O)[C@H](C)NC(=O)[C@H](CCC(=O)O)NC(=O)[C@H](CCC(=O)O)NC(=O)[C@H](CCC(=O)O)NC(=O)[C@H](CCSC)NC(=O)[C@H](CCC(N)=O)NC(=O)[C@H](CCCCN=[N+]=[N-])NC(=O)[C@H](CO)NC(=O)[C@H](CC(C)C)NC(=O)[C@H](CC(=O)O)NC(=O)[C@H](CO)NC(=O)[C@@H](NC(=O)[C@H](Cc1ccccc1)NC(=O)[C@@H](NC(=O)CNC(=O)[C@H](CCC(N)=O)NC(=O)[C@@H](CO)NC(=O)[C@@H](N)Cc1c[nH]cn1)[C@@H](C)O)[C@@H](C)O)C(C)C)C(=O)N[C@@H](CCC(=O)O)C(=O)N[C@@H](Cc1c[nH]c2ccccc12)C(=O)N[C@@H](CC(C)C)C(=O)N[C@@H](CCCCN)C(=O)N[C@@H](CC(N)=O)C(=O)N[C@@H](CCCNC(=N)N)C(=O)N[C@@H](Cc1c[nH]cn1)C(=O)N[C@@H](Cc1ccc(O)cc1)C(=O)N[C@@H](CC(C)C)C(=O)N[C@@H](CC(N)=O)C(=O)N[C@@H](CC(C)C)C(=O)N[C@H](C(=O)N[C@H](C(=O)N[C@@H](CCCNC(=N)N)C(=O)N[C@@H](CCC(N)=O)C(=O)N[C@@H](CCCNC(=N)N)C(=O)N[C@@H](Cc1ccc(O)cc1)C(N)=O)[C@@H](C)O)C(C)C [EP40] |  |  | –0.96 |  |  |  |  |  |  |
| CC[C@H](C)[C@H](NC(=O)[C@H](Cc1ccccc1)NC(=O)[C@H](CCC(=O)O)NC(=O)[C@H](CCCNC(=N)N)NC(=O)[C@@H](NC(=O)[C@H](C)NC(=O)[C@H](CCC(=O)O)NC(=O)[C@H](CCC(=O)O)NC(=O)[C@H](CCC(=O)O)NC(=O)[C@H](CC(C)C)NC(=O)[C@H](Cc1ccc(O)cc1)NC(=O)[C@H](CCCCN=[N+]=[N-])NC(=O)[C@H](CO)NC(=O)[C@H](CC(C)C)NC(=O)[C@H](CC(=O)O)NC(=O)[C@H](CO)NC(=O)[C@@H](NC(=O)[C@H](Cc1ccccc1)NC(=O)[C@@H](NC(=O)CNC(=O)[C@H](CCC(N)=O)NC(=O)[C@@H](CO)NC(=O)[C@@H](N)Cc1c[nH]cn1)[C@@H](C)O)[C@@H](C)O)C(C)C)C(=O)N[C@@H](C)C(=O)N[C@@H](Cc1c[nH]c2ccccc12)C(=O)N[C@@H](CC(C)C)C(=O)N[C@@H](CCCCN)C(=O)N[C@@H](CC(N)=O)C(=O)NCC(=O)NCC(=O)N1CCC[C@H]1C(=O)N[C@@H](CO)C(=O)N[C@@H](CCCNC(=N)N)C(=O)N[C@@H](Cc1c[nH]cn1)C(=O)N[C@@H](Cc1ccc(O)cc1)C(=O)N[C@@H](CC(C)C)C(=O)N[C@@H](CC(N)=O)C(=O)N[C@@H](CC(C)C)C(=O)N[C@H](C(=O)N[C@H](C(=O)N[C@@H](CCCNC(=N)N)C(=O)N[C@@H](CCC(N)=O)C(=O)N[C@@H](CCCNC(=N)N)C(=O)N[C@@H](Cc1ccc(O)cc1)C(N)=O)[C@@H](C)O)C(C)C [GEP44] |  |  |  | > 3000 nM | 32.5 (1.18) μL/min/mg peptide | 10 nM | 0.33 nM | 27 nM | 113 nM |
